# Assay results: patent US10517889B2, “Modulators of SMAD7 expression” (Ionis Pharmaceuticals, Inc., priority 2017, dated 2019)
# Strand notation (5' to 3'): a small letter for the sugar, then the base; units joined by * are phosphorothioate-linked, units joined directly phosphodiester-linked; [ ] holds rarer units or linkages, { } end groups; capitals alone tell only the bases. k = constrained ethyl (cEt); [5mC] = 5-methylcytosine; d = 2'-deoxy (DNA)
# Test system: human SMAD7 mRNA
# Experiment: Antisense inhibition of human SMAD7 mRNA expression in Hep3B cells by 3-10-3 cEt gapmers, 10,000 nM, electroporation (Example 2)
# Format: cell-based
# Conditions: Hep3B cells, 10,000 nM antisense oligonucleotide, electroporation, approximately 24 hours, RT-PCR primer probe set RTS5062, relative to untreated control cells
# In short: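 Hep3B cells (20,000/well) were electroporated with 10,000 nM 3-10-3 cEt gapmer (16-mer, phosphorothioate, 5-methylcytosines) and harvested after about 24 h. SMAD7 mRNA quantified by RT-qPCR with primer probe set RTS5062, normalized to total RNA by RiboGreen; percent inhibition relative to untreated cells.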
row,Substance,% Inhibition
1,799930 (antisense kT*k[5mC]*kT*dT*dT*dT*dA*dT*d[5mC]*dA*d[5mC]*dT*dG*kT*k[5mC]*kA) [compound 799930],8%
2,799932 (antisense kT*k[5mC]*kA*dA*dG*dA*dG*dA*d[5mC]*dG*dG*dT*dG*kA*kG*k[5mC]) [compound 799932],0%
3,799933 (antisense kT*kA*k[5mC]*dT*dA*dT*dT*d[5mC]*dA*dT*d[5mC]*dA*d[5mC]*k[5mC]*k[5mC]*kT) [compound 799933],22%
4,799934 (antisense kA*k[5mC]*kT*dT*dT*dT*dT*dA*d[5mC]*dT*d[5mC]*dT*dG*kT*k[5mC]*kT) [compound 799934],61%
5,799935 (antisense kA*kG*kA*dA*dA*dT*dG*dA*d[5mC]*dT*dT*dT*dT*kT*kA*k[5mC]) [compound 799935],42%
6,799936 (antisense k[5mC]*kT*kT*dT*dA*dA*dT*dT*dT*d[5mC]*dA*dG*dA*kG*kT*k[5mC]) [compound 799936],44%
7,799937 (antisense kT*k[5mC]*kT*dT*dT*dA*dA*dT*dT*dT*d[5mC]*dA*dG*kA*kG*kT) [compound 799937],24%
8,799938 (antisense k[5mC]*kT*k[5mC]*dT*dA*dA*dA*d[5mC]*d[5mC]*dA*dA*d[5mC]*dT*kT*kT*kT) [compound 799938],17%
9,799939 (antisense kG*k[5mC]*kA*dT*dT*dT*dA*dA*dT*dT*dT*dG*d[5mC]*kA*kA*k[5mC]) [compound 799939],38%
10,799950 (antisense kG*k[5mC]*kA*d[5mC]*dA*dA*dG*dT*d[5mC]*dA*d[5mC]*dT*dG*kG*k[5mC]*k[5mC]) [compound 799950],0%
11,799951 (antisense kT*k[5mC]*kT*dT*dA*dA*dA*dA*dA*dA*dA*dG*dG*kG*kA*kG) [compound 799951],0%
12,799952 (antisense k[5mC]*kT*k[5mC]*dT*dA*dA*dG*dT*dG*dG*d[5mC]*dT*d[5mC]*kA*kT*kG) [compound 799952],30%
13,799953 (antisense kA*kG*kA*dA*dA*dA*dT*dG*d[5mC]*d[5mC]*d[5mC]*dA*d[5mC]*k[5mC]*kA*kG) [compound 799953],0%
14,799954 (antisense k[5mC]*kA*kG*dA*dA*dA*dA*dT*dG*d[5mC]*d[5mC]*d[5mC]*dA*k[5mC]*k[5mC]*kA) [compound 799954],42%
15,799955 (antisense k[5mC]*kG*k[5mC]*dT*d[5mC]*dA*dG*dA*dA*dA*dA*dT*dG*k[5mC]*k[5mC]*k[5mC]) [compound 799955],50%
16,799956 (antisense kT*k[5mC]*kT*d[5mC]*d[5mC]*dA*dG*d[5mC]*d[5mC]*dG*d[5mC]*dT*d[5mC]*kA*kG*kA) [compound 799956],57%
17,799957 (antisense kT*k[5mC]*kT*dG*dA*dG*dG*d[5mC]*dT*d[5mC]*d[5mC]*dT*dG*kG*kG*kT) [compound 799957],11%
18,799958 (antisense kG*kT*kG*dG*dA*dG*dA*dG*dT*dG*d[5mC]*dT*dG*k[5mC]*kA*k[5mC]) [compound 799958],23%
19,799959 (antisense kA*kG*k[5mC]*dT*dT*dG*dT*dG*dG*dA*dG*dA*dG*kT*kG*k[5mC]) [compound 799959],1%
20,799970 (kT*k[5mC]*k[5mC]*dT*d[5mC]*dA*dG*dG*dA*dA*dA*d[5mC]*dA*k[5mC]*kA*kG; antisense) [compound 799970],43%
21,799971 (kG*kT*kA*dA*dA*dA*d[5mC]*dT*dT*dG*d[5mC]*dT*dG*kA*kG*kA; antisense) [compound 799971],31%
22,799972 (k[5mC]*kA*k[5mC]*dA*dA*dG*dG*dA*d[5mC]*d[5mC]*d[5mC]*dT*dT*kG*k[5mC]*kT; antisense) [compound 799972],0%
23,799973 (kA*kT*kA*dA*dT*dT*d[5mC]*dA*d[5mC]*dA*dA*dG*dG*kA*k[5mC]*k[5mC]; antisense) [compound 799973],0%
24,799974 (kG*kA*k[5mC]*dT*d[5mC]*d[5mC]*dA*dG*dT*dG*d[5mC]*d[5mC]*dA*kA*kT*k[5mC]; antisense) [compound 799974],23%
25,799975 (kT*k[5mC]*kT*dT*d[5mC]*dA*dG*dG*dG*dA*d[5mC]*dA*dA*kG*k[5mC]*k[5mC]; antisense) [compound 799975],38%
26,799976 (kT*k[5mC]*kA*dA*dA*dG*dG*dT*dT*dA*dA*d[5mC]*dA*kG*k[5mC]*kA; antisense) [compound 799976],34%

# Same assay, conditions: Hep3B cells, electroporation with 10,000 nM antisense oligonucleotide, approximately 24 hours, SMAD7 mRNA by RT-PCR (RTS5062), relative to untreated control cells
row,Substance,% Inhibition
1,799924 (antisense k[5mC]*kA*kA*dG*d[5mC]*d[5mC]*dT*dA*d[5mC]*dA*dT*dA*dT*kT*kT*k[5mC]) [compound 799924],22%
2,799925 (antisense k[5mC]*k[5mC]*kA*dA*dG*d[5mC]*d[5mC]*dT*dA*d[5mC]*dA*dT*dA*kT*kT*kT) [compound 799925],10%
3,799926 (antisense k[5mC]*k[5mC]*k[5mC]*dA*dA*dG*d[5mC]*d[5mC]*dT*dA*d[5mC]*dA*dT*kA*kT*kT) [compound 799926],17%
4,799927 (antisense kT*k[5mC]*k[5mC]*d[5mC]*dA*dA*dG*d[5mC]*d[5mC]*dT*dA*d[5mC]*dA*kT*kA*kT) [compound 799927],0%
5,799928 (antisense k[5mC]*kT*k[5mC]*d[5mC]*d[5mC]*dA*dA*dG*d[5mC]*d[5mC]*dT*dA*d[5mC]*kA*kT*kA) [compound 799928],7%
6,799929 (antisense kT*kG*k[5mC]*d[5mC]*d[5mC]*dA*dG*dG*d[5mC]*dT*dT*dG*dG*kT*kT*k[5mC]) [compound 799929],9%
7,799940 (antisense k[5mC]*kT*kT*dT*dG*dA*dG*dG*dA*dG*d[5mC]*dA*dG*kG*kG*kT) [compound 799940],50%
8,799941 (antisense kT*kT*kT*dA*d[5mC]*dT*dA*d[5mC]*d[5mC]*dT*dT*d[5mC]*d[5mC]*kA*kG*kA) [compound 799941],44%
9,799942 (antisense kA*kA*k[5mC]*dA*d[5mC]*dT*dG*dG*dT*dT*d[5mC]*d[5mC]*dA*kT*kT*kT) [compound 799942],0%
10,799943 (antisense kT*kG*k[5mC]*d[5mC]*d[5mC]*dT*d[5mC]*dT*d[5mC]*dA*dG*dG*dG*kT*k[5mC]*kT) [compound 799943],0%
11,799944 (antisense k[5mC]*kT*kG*d[5mC]*dA*dG*d[5mC]*dA*dA*dG*dA*dA*dG*kT*kG*kG) [compound 799944],5%
12,799945 (antisense kA*kG*k[5mC]*dT*dT*dT*dT*dA*dG*dA*dG*d[5mC]*dT*kG*k[5mC]*kG) [compound 799945],5%
13,799946 (antisense kT*k[5mC]*kA*dG*dA*dA*d[5mC]*dA*d[5mC]*dA*d[5mC]*dT*dT*kT*kG*kG) [compound 799946],2%
14,799947 (antisense kT*k[5mC]*kT*dA*dA*dA*dG*d[5mC]*d[5mC]*dA*d[5mC]*d[5mC]*dA*kA*kG*k[5mC]) [compound 799947],28%
15,799948 (antisense kA*kT*kA*dT*dT*dG*d[5mC]*d[5mC]*dT*dG*dG*dT*dG*kT*kG*kA) [compound 799948],48%
16,799949 (antisense kA*k[5mC]*kT*dG*dG*d[5mC]*d[5mC]*dG*dA*dA*dG*dT*dG*k[5mC]*kA*kG) [compound 799949],10%
17,799960 (antisense kA*kA*kA*d[5mC]*dA*dG*dG*dG*dT*dT*d[5mC]*d[5mC]*d[5mC]*k[5mC]*k[5mC]*kA) [compound 799960],8%
18,799961 (antisense k[5mC]*k[5mC]*kT*dA*dA*dA*dA*d[5mC]*dA*dG*dG*dG*dT*kT*k[5mC]*k[5mC]) [compound 799961],20%
19,799962 (antisense k[5mC]*k[5mC]*kA*dA*d[5mC]*d[5mC]*d[5mC]*d[5mC]*dA*dG*dA*dG*dG*kT*kG*kA) [compound 799962],0%
20,799963 (antisense kA*kG*k[5mC]*d[5mC]*dA*dT*dG*dG*d[5mC]*dA*dG*dA*dA*k[5mC]*k[5mC]*k[5mC]) [compound 799963],6%
21,799965 (antisense k[5mC]*kT*k[5mC]*d[5mC]*dA*dG*dT*dG*dA*dA*dG*dT*dG*kA*kG*kA) [compound 799965],0%
22,799966 (antisense kG*kT*kG*dG*dA*dA*dG*dG*d[5mC]*dT*dG*dA*d[5mC]*k[5mC]*kT*kG) [compound 799966],35%
23,799968 (k[5mC]*kT*kG*d[5mC]*dG*dA*dG*dT*dT*dA*dA*dT*d[5mC]*kA*kG*kA; antisense) [compound 799968],27%
24,799969 (kT*kT*kA*dG*dA*dG*dT*dG*dA*dG*dT*dT*d[5mC]*k[5mC]*kT*k[5mC]; antisense) [compound 799969],46%
